Test results published in patent US12281122B1, “PI3K inhibitors” (Cogent Biosciences, Inc., priority 2023, dated 2025).

Experiments:
[1] = test system: T47D (PI3Kα-H1047R) cell line; test: HTRF phospho-AKT(S473) cell assay in T47D cells; format: cell-based, human
Outline: (§1)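 HTRF read-out of phospho-AKT(S473) in lysates gave IC50 values after 2 h compound exposure at 37° C. Dose series was 12 points at 1:3, topping at 5 μM for T47D and 10 μM for SKBR3. Only SKBR3 received 70 ng/ml PDGF-BB during the last 15 minutes.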

[2] = test system: SKBR3 (PI3Kα-Wild Type) cell line; test: HTRF phospho-AKT(S473) cell assay in SKBR3 cells; format: cell-based, human
Outline: as §1

[3] = Homo sapiens; HTRF phospho-AKT(S473), T47D (PI3Kα-H1047R) cells, 2 hours compound incubation
[4] = Homo sapiens, SK-BR-3; HTRF phospho-AKT(S473), SKBR3 (PI3Kα-Wild Type) cells, 2 hours compound incubation, PDGF-BB stimulated
[5] = Homo sapiens; T47D (PI3Kα-H1047R) cells, HTRF phospho-AKT(S473), 2 hours compound incubation
[6] = Homo sapiens, SK-BR-3; SKBR3 (PI3Kα-Wild Type) cells, HTRF phospho-AKT(S473), 2 hours compound incubation, PDGF-BB stimulated

Compound | IC50 [1, 3] | IC50 [2, 4] | IC50 [1, 5] | IC50 [2, 6]
Cc1cc([C@@H](C)Nc2ccc(Cl)nc2C(=O)NS(C)(=O)=O)c2nc(N3CCC(n4ncc(F)c4C)CC3)n(C)c(=O)c2c1 [Compound 712, (R)-6-chloro-3-((1-(2-(4-(4-fluoro-5-methyl-1H-pyrazol-1-yl)piperidin-1-yl)-3,6-dimethyl-4-oxo-3,4-dihydroquinazolin-8-yl)ethyl)amino)-N-(methylsulfonyl) picolinamide] | < 250 nM | 1000 to 5000 nM |  | 
Cc1cc([C@@H](C)Nc2ccc(Cl)nc2C(=O)NS(C)(=O)=O)c2nc(N3CCN(c4ccc(C#N)cc4)CC3)n(C)c(=O)c2c1 [Compound 190, (R)-6-chloro-3-((1-(2-(4-(4-cyanophenyl)piperazin-1-yl)-3,6-dimethyl-4-oxo-3,4-dihydroquinazolin-8-yl)ethyl)amino)-N-(methylsulfonyl) picolinamide] |  |  | < 250 nM | 1000 to 5000 nM
Cc1cc([C@@H](C)Nc2ccc(Cl)nc2C(=O)NS(C)(=O)=O)c2nc(N3C[C@@H]4[C@H](C3)[C@H]4c3nc(C)no3)n(C)c(=O)c2c1 [Compound 742, 6-chloro-3-(((R)-1-(3,6-dimethyl-2-((1R,5S,6R)-6-(3-methyl-1,2,4-oxadiazol-5-yl)-3-azabicyclo[3.1.0]hexan-3-yl)-4-oxo-3,4-dihydroquinazolin-8-yl)ethyl)amino)-N-(methylsulfonyl) picolinamide] | 250 to 500 nM | 1000 to 5000 nM |  | 
Cc1cc([C@@H](C)Nc2ccc(Cl)nc2C(=O)NS(C)(=O)=O)c2nc(N3CCC(c4nn(C5CC5)cc4F)CC3)n(C)c(=O)c2c1 [Compound 505, (R)-6-chloro-3-((1-(2-(4-(1-cyclopropyl-4-fluoro-1H-pyrazol-3-yl)piperidin-1-yl)-3,6-dimethyl-4-oxo-3,4-dihydroquinazolin-8-yl)ethyl)amino)-N-(methylsulfonyl) picolinamide] | 250 to 500 nM | ≥ 5000 nM |  | 
Cc1cc([C@@H](C)Nc2ccc(Cl)nc2C(=O)NS(C)(=O)=O)c2nc(N3Cc4cn(CC5CC5)nc4C3)n(C)c(=O)c2c1 [Compound 683, (R)-6-chloro-3-((1-(2-(2-(cyclopropylmethyl)-2,6-dihydropyrrolo[3,4-c]pyrazol-5(4H)-yl)-3,6-dimethyl-4-oxo-3,4-dihydroquinazolin-8-yl)ethyl)amino)-N-(methylsulfonyl) picolinamide] | 250 to 500 nM | 1000 to 5000 nM |  | 
Cc1cc([C@@H](C)Nc2ccc(Cl)nc2C(=O)NS(C)(=O)=O)c2nc(N3CCN(c4cnc(C)nc4)CC3)n(C)c(=O)c2c1 [Compound 257, (R)-6-chloro-3-((1-(3,6-dimethyl-2-(4-(2-methylpyrimidin-5-yl)piperazin-1-yl)-4-oxo-3,4-dihydroquinazolin-8-yl)ethyl)amino)-N-(methylsulfonyl) picolinamide] |  |  | < 250 nM | 1000 to 5000 nM
Cc1cc([C@@H](C)Nc2ccc(Cl)nc2C(=O)NS(C)(=O)=O)c2nc(N3C[C@@H]4[C@H](C3)[C@H]4c3n[nH]cc3C)n(C)c(=O)c2c1 [Compound 651, 6-chloro-3-(((R)-1-(3,6-dimethyl-2-((1R,5S,6R)-6-(4-methyl-1H-pyrazol-3-yl)-3-azabicyclo[3.1.0]hexan-3-yl)-4-oxo-3,4-dihydroquinazolin-8-yl)ethyl)amino)-N-(methylsulfonyl) picolinamide] | 250 to 500 nM | 1000 to 5000 nM |  | 
Cc1cc([C@@H](C)Nc2ccc(Cl)nc2C(=O)NS(C)(=O)=O)c2nc(N3C[C@@H]4[C@H](C3)[C@H]4c3cnc(C)nc3)n(C3CC3)c(=O)c2c1 [Compound 606, 6-chloro-3-(((R)-1-(3-cyclopropyl-6-methyl-2-((1R,5S,6S)-6-(2-methylpyrimidin-5-yl)-3-azabicyclo[3.1.0]hexan-3-yl)-4-oxo-3,4-dihydroquinazolin-8-yl)ethyl)amino)-N-(methylsulfonyl) picolinamide] | 250 to 500 nM | ≥ 5000 nM |  | 
Cc1cc([C@@H](C)Nc2ccc(Cl)nc2C(=O)NS(C)(=O)=O)c2nc(N3C[C@@H]4[C@H](C3)[C@H]4c3ccc(C)nc3)n(C)c(=O)c2c1 [Compound 449, 6-chloro-3-(((R)-1-(3,6-dimethyl-2-((1R,5S,6S)-6-(6-methylpyridin-3-yl)-3-azabicyclo[3.1.0]hexan-3-yl)-4-oxo-3,4-dihydroquinazolin-8-yl)ethyl)amino)-N-(methylsulfonyl) picolinamide] | 250 to 500 nM | ≥ 5000 nM |  | 
Cc1cc([C@@H](C)Nc2ccc(Cl)nc2C(=O)NS(C)(=O)=O)c2nc(N3C[C@H]4C[C@@H]3C[C@@H]4c3nn(C)cc3F)n(C)c(=O)c2c1 (relative stereo) [Compound 443, 6-chloro-3-(((R)-1-(2-((1R*,4S*,5S*)-5-(4-fluoro-1-methyl-1H-pyrazol-3-yl)-2-azabicyclo[2.2.1]heptan-2-yl)-3,6-dimethyl-4-oxo-3,4-dihydroquinazolin-8-yl)ethyl)amino)-N-(methylsulfonyl) picolinamide] | 250 to 500 nM | 1000 to 5000 nM |  | 
C[C@@H](Nc1ccc(Cl)nc1C(=O)NS(C)(=O)=O)c1cc(F)cc2c(=O)n(C)c(N3C[C@@H]4[C@H](C3)[C@H]4c3ccn(C)n3)nc12 [Compound 373, 6-chloro-3-(((R)-1-(6-fluoro-3-methyl-2-((1R,5S,6R)-6-(1-methyl-1H-pyrazol-3-yl)-3-azabicyclo[3.1.0]hexan-3-yl)-4-oxo-3,4-dihydroquinazolin-8-yl)ethyl)amino)-N-(methylsulfonyl) picolinamide] |  |  | 250 to 500 nM | 1000 to 5000 nM
Cc1cc([C@@H](C)Nc2ccc(Cl)nc2C(=O)NS(C)(=O)=O)c2nc(N3CCC(c4ccn(C(F)F)n4)CC3)n(C)c(=O)c2c1 [Compound 413, (R)-6-chloro-3-((1-(2-(4-(1-(difluoromethyl)-1H-pyrazol-3-yl)piperidin-1-yl)-3,6-dimethyl-4-oxo-3,4-dihydroquinazolin-8-yl)ethyl)amino)-N-(methylsulfonyl) picolinamide] |  |  | < 250 nM | 1000 to 5000 nM
CO[C@H]1CC[C@@H](n2ncc(-c3nc4c([C@@H](C)Nc5ccc(Cl)nc5C(=O)NS(C)(=O)=O)cc(C)cc4c(=O)n3C)c2C)CC1 (relative stereo) [Compound 380, 6-chloro-3-(((R)-1-(2-(1-((1S*,4S*)-4-methoxycyclohexyl)-5-methyl-1H-pyrazol-4-yl)-3,6-dimethyl-4-oxo-3,4-dihydroquinazolin-8-yl)ethyl)amino)-N-(methylsulfonyl) picolinamide] |  |  | < 250 nM | ≥ 5000 nM
Cc1cc([C@@H](C)Nc2ccc(Cl)nc2C(=O)NS(C)(=O)=O)c2nc(-c3ccc(-c4noc(C)n4)nc3)n(C)c(=O)c2c1 [Compound 303, (R)-6-chloro-3-((1-(3,6-dimethyl-2-(6-(5-methyl-1,2,4-oxadiazol-3-yl)pyridin-3-yl)-4-oxo-3,4-dihydroquinazolin-8-yl)ethyl)amino)-N-(methylsulfonyl) picolinamide] |  |  | 250 to 500 nM | 1000 to 5000 nM
Cc1cc([C@@H](C)Nc2ccc(Cl)nc2C(=O)NS(C)(=O)=O)c2nc(-c3ccc(-c4cnn(C)c4)cn3)n(C)c(=O)c2c1 [Compound 285, (R)-6-chloro-3-((1-(3,6-dimethyl-2-(5-(1-methyl-1H-pyrazol-4-yl)pyridin-2-yl)-4-oxo-3,4-dihydroquinazolin-8-yl)ethyl)amino)-N-(methylsulfonyl) picolinamide] |  |  | < 250 nM | 1000 to 5000 nM
Cc1cc([C@@H](C)Nc2ccc(Cl)nc2C(=O)NS(C)(=O)=O)c2nc(N3C[C@H]4C[C@@H](c5cc[nH]n5)[C@@H]3C4)n(C)c(=O)c2c1 (single isomer, unassigned) [Compound 346, 3-(((R)-1-(2-((1S,4S,6R*)-6-(1H-pyrazol-3-yl)-2-azabicyclo[2.2.1]heptan-2-yl)-3,6-dimethyl-4-oxo-3,4-dihydroquinazolin-8-yl)ethyl)amino)-6-chloro-N-(methylsulfonyl) picolinamide] |  |  | 250 to 500 nM | ≥ 5000 nM
Cc1cc([C@@H](C)Nc2ccc(Cl)nc2C(=O)NS(C)(=O)=O)c2nc(N3CC[C@@H](Oc4cccnc4)C3)n(C)c(=O)c2c1 [Compound 345, 6-chloro-3-(((R)-1-(3,6-dimethyl-4-oxo-2-((R)-3-(pyridin-3-yloxy)pyrrolidin-1-yl)-3,4-dihydroquinazolin-8-yl)ethyl)amino)-N-(methylsulfonyl) picolinamide] |  |  | < 250 nM | 1000 to 5000 nM
Cc1cc([C@@H](C)Nc2ccc(Cl)nc2C(=O)NS(C)(=O)=O)c2nc(N3CC4C[C@H]3CN4c3ccc(N(C)C)cc3)n(C)c(=O)c2c1 (stereo in doubt) [Compound 743, 6-chloro-3-(((R)-1-(2-((1S,4R)-5-(4-(dimethylamino)phenyl)-2,5-diazabicyclo [2.2.1]heptan-2-yl)-3,6-dimethyl-4-oxo-3,4-dihydroquinazolin-8-yl)ethyl)amino)-N-(methylsulfonyl) picolinamide] | 1000 to 5000 nM | ≥ 5000 nM |  | 
Cc1cc([C@@H](C)Nc2ccc(Cl)nc2C(=O)NS(C)(=O)=O)c2nc(N3C[C@@H]4[C@H](C3)[C@H]4c3cnc(C)o3)n(C)c(=O)c2c1 [Compound 518, 6-chloro-3-(((R)-1-(3,6-dimethyl-2-((1R,5S,6R)-6-(2-methyloxazol-5-yl)-3-azabicyclo[3.1.0]hexan-3-yl)-4-oxo-3,4-dihydroquinazolin-8-yl)ethyl)amino)-N-(methylsulfonyl) picolinamide] | < 250 nM | 1000 to 5000 nM |  | 
